Holding throughout (assay type): cell-based
Common to all, as to details: Homo sapiens

In assay [1] the test system is human breast adenocarcinoma cells SK-BR-3. Kind of assay: Tumor cell growth inhibitory activity (CCK-8), SK-BR-3. On the procedure: (§1) Human esophageal cancer cells OE33 (human breast adenocarcinoma cells SK-BR-3, or human gastric cancer cells NCI-N87) was cultured in RPMI1640 (Cellmax) supplemented with 10% fetal bovine serum (Cellmax). Cells in the exponential growth phase were diluted to a concentration of 1×10^5 cells/mL by culture medium and added to 96-well cell culture plates at 100 μL per well, then returned back and incubated overnight in a 37° C. incubator with 5% CO2. On the following day, the compounds were diluted to concentrations of 10000 nM, 2000 nM, 400 nM, 80 nM, 16 nM, 3.2 nM, 0.64 nM, and 0.13 nM by culture medium and the diluted compounds were added to the 96-well cell culture plates at 2 μL per well, with three replicate wells for each concentration. Negative control and blank control groups without addition of compounds were added with 2 μL of the dilution liquid per well. After the addition of the compounds, the plates were returned back to the 37° C. incubator with 5% CO2 to continue the incubation for 72 h. After the incubation, the cell culture plates were removed, and the culture medium was aspirated using a pipette. Then, 100 μL of culture medium containing 10% CCK-8 was added to each well, and the plates were incubated at 37° C. for 3 h. After the incubation, the plates were removed, kept in the dark, and placed in an ELISA plate. Absorbance was measured at 630 nm as the reference wavelength and 450 nm as the test wavelength. The IC50 values (Table 2) were calculated using the four-parameter logistic regression method in GraphPad.

The subject of assay [2] is NCI-H1975. Kind of assay: Tumor cell growth inhibitory activity, NCI-H1975.
Assay [3] relates to human gastric cancer cells NCI-N87. Kind of assay: Tumor cell growth inhibitory activity (CCK-8), NCI-N87. As for the experimental part: as §1
Assay [4] relates to MDA-MB-231. Kind of assay: Tumor cell growth inhibitory activity, MDA-MB-231.
Assay [5] relates to Human esophageal cancer cells OE33. Kind of assay: Tumor cell growth inhibitory activity (CCK-8), OE33. On the procedure:
as §1

Setting [6] is: SK-BR-3, 72 h, read-out: IC50 (nM) for inhibiting the growth of tumor cells, SK-BR-3, SK-BR-3 cells, 72 h incubation, CCK-8.
[7] abbreviates: NCI-H1975, read-out: IC50 (nM) for inhibiting the growth of tumor cells, NCI-H1975, NCI-H1975 cells.
Where [8] appears, read: NCI-N87, 72 h, read-out: IC50 (nM) for inhibiting the growth of tumor cells, NCI-N87, NCI-N87 cells, 72 h incubation, CCK-8.
Where [9] appears, read: OE33, 72 h, read-out: IC50 (nM) for inhibiting the growth of tumor cells, OE33, OE33 cells, 72 h incubation, CCK-8.
Where [10] appears, read: SK-BR-3 cells, 72 h incubation, CCK-8, read-out: IC50 (nM) for inhibiting the growth of tumor cells, SK-BR-3.
Setting [11] is: NCI-H1975 cells, read-out: IC50 (nM) for inhibiting the growth of tumor cells, NCI-H1975.
Setting [12] is: NCI-N87 cells, 72 h incubation, CCK-8, read-out: IC50 (nM) for inhibiting the growth of tumor cells, NCI-N87.
[13] abbreviates: MDA-MB-231 cells, read-out: IC50 (nM) for inhibiting the growth of tumor cells, MDA-MB-231.
[14] abbreviates: OE33 cells, 72 h incubation, CCK-8, read-out: IC50 (nM) for inhibiting the growth of tumor cells, OE33.

Like-named read-outs stand apart in the source and are kept apart here.

In the case of `CC[C@@]1(O)C(=O)OCc2c1cc1n(c2=O)Cc2c-1nc1cc3c(cc1c2CCNC1CCOCC1)OCO3` [Compound 25, 7-(2-(Tetrahydropyran-4-yl)amino)ethyl-10,11-methylenedioxycamptothecin], the 50% inhibitory concentration (IC50) in assay [1] (setting [6]) was 4.96 nM; in assay [2] (setting [7]), 15.8 nM; in assay [3] (setting [8]) it was 0.46 nM; in assay [4] (MDA-MB-231, read-out: IC50 (nM) for inhibiting the growth of tumor cells, MDA-MB-231, MDA-MB-231 cells), 21.3 nM; in assay [5] (setting [9]), 4.89 nM.

For `C[C@@]1(O)C(=O)OCc2c1cc1n(c2=O)Cc2c-1nc1cc3c(cc1c2CCNC(=O)C(F)F)OCO3` [Compound 36, 7-(2-Difluoroacetylamino)ethyl-10,11-methylenedioxycamptothecin], the concentration for half-maximal inhibition (IC50) was 2.8 nM in assay [1] (setting [10]); 38.7 nM in assay [2] (setting [11]); 7.66 nM in assay [3] (setting [12]); 110 nM in assay [4] (setting [13]); 7.24 nM in assay [5] (setting [14]).

`CC[C@@]1(O)C(=O)OCc2c1cc1n(c2=O)Cc2c-1nc1cc3c(cc1c2CCN(C(=O)CO)[C@@H](C)COC)OCO3` [Compound 30, 7-(2-(N-Hydroxyacetyl((S)-methoxyisopropyl))amino)ethyl-10,11-methylenedioxycamptothecin]: the IC50 in assay [1] (setting [10]) was 6.23 nM; in assay [2] (setting [11]), 15.4 nM; in assay [3] (setting [12]), 1.56 nM; in assay [4] (setting [13]) it was 98.5 nM; in assay [5] (setting [14]) it was 6.47 nM.

In the case of `CC[C@@]1(O)C(=O)OCc2c1cc1n(c2=O)Cc2c-1nc1cc3c(cc1c2CCNS(C)(=O)=O)OCO3` [Compound 38, 7-(2-Methanesulfonamido)ethyl-10,11-methylenedioxycamptothecin], the 50% inhibitory concentration (IC50) came to 332 nM in assay [1] (setting [6]), 282 nM in assay [2] (setting [7]), 48 nM in assay [3] (setting [8]) and 199 nM in assay [5] (setting [9]).

Turning to `CC[C@@]1(O)C(=O)OCc2c1cc1n(c2=O)Cc2c-1nc1cc3c(cc1c2CCN[C@@H](C)CO)OCO3` [Compound 28, 7-(2-((S)-Hydroxyisopropyl)amino)ethyl-10,11-methylenedioxycamptothecin], the IC50 was found to be 77.2 nM in assay [1] (setting [6]), 119 nM in assay [2] (setting [7]), 61.5 nM in assay [3] (setting [8]) and 49.6 nM in assay [5] (setting [9]).

As for `CC[C@@]1(O)C(=O)OCc2c1cc1n(c2=O)Cc2c-1nc1cc(F)c(C)cc1c2CCNC1CCC(OC)CC1` (stereo partly drawn) [Compound 7, 7-(2-(4-Methoxycyclohexyl)amino)ethyl-10-methyl-11-fluorocamptothecin], the IC50 in assay [1] (setting [10]) turned out to be 22.2 nM; in assay [2] (setting [11]), 92.2 nM; in assay [3] (setting [12]), 2.02 nM; in assay [4] (setting [13]) it was 147 nM; in assay [5] (setting [14]) it was 6.46 nM.

Turning to `CC[C@@]1(O)C(=O)OCc2c1cc1n(c2=O)Cc2c-1nc1cc3c(cc1c2CCNC1CCOCC1)OCCO3` [Compound 43, 7-(2-(Tetrahydropyran-4-yl)amino)ethyl-10,11-ethylenedioxycamptothecin], the IC50 in assay [1] (setting [10]) came to 81.8 nM; in assay [2] (setting [11]), 58.7 nM; in assay [3] (setting [12]), 7.43 nM; in assay [4] (setting [13]), 243 nM; in assay [5] (setting [14]), 39.3 nM.

`CC[C@@]1(O)C(=O)OCc2c1cc1n(c2=O)Cc2c-1nc1cc(F)c(C)cc1c2CCNCCN=[N+]=[N-]` [Compound 8, 7-(2-(2-Azidoethyl)amino)ethyl-10-methyl-11-fluorocamptothecin]: the IC50 stood at 4.92 nM in assay [1] (setting [10]); 18.5 nM in assay [2] (setting [11]); 0.68 nM in assay [3] (setting [12]); 80.4 nM in assay [4] (setting [13]); 3.26 nM in assay [5] (setting [14]).

`CC[C@@]1(O)C(=O)OCc2c1cc1n(c2=O)Cc2c-1nc1cc(F)c(C)cc1c2CCN1CCNCC1` [Compound 5, 7-(2-(piperazin-4-yl))ethyl-10-methyl-11-fluorocamptothecin]: the IC50 in assay [1] (setting [10]) was 60.4 nM; in assay [2] (setting [11]), 77.3 nM; in assay [3] (setting [12]), 5.66 nM; in assay [5] (setting [14]), 44 nM.

In the case of `CC[C@@]1(O)C(=O)OCc2c1cc1n(c2=O)Cc2c-1nc1cc3c(cc1c2CCNc1ncn[nH]1)OCO3` [Compound 41, 7-(2-(1,2,4-Triazol-5-ylamino))ethyl-10,11-methylenedioxycamptothecin], the IC50 was 89.9 nM in assay [1] (setting [6]), 136 nM in assay [2] (setting [7]), 33.9 nM in assay [3] (setting [8]) and 24.2 nM in assay [5] (setting [9]).

Consider `CC[C@@]1(O)C(=O)OCc2c1cc1n(c2=O)Cc2c-1nc1cc(F)c(F)cc1c2CCNCCN=[N+]=[N-]` [Compound 15, 7-(2-(2-Azidoethyl)amino)ethyl-10,11-difluorocamptothecin], for which the IC50 in assay [1] (setting [10]) was found to be 7.5 nM; in assay [2] (setting [11]), 115 nM; in assay [3] (setting [12]), 1.02 nM; in assay [5] (setting [14]), 32.3 nM.

For the molecule `CC[C@@]1(O)C(=O)OCc2c1cc1n(c2=O)Cc2c-1nc1cc(F)c(C)cc1c2CCNC1CCC(O)CC1` (stereo partly drawn) [Compound 6, 7-(2-(4-Hydroxycyclohexyl)amino)ethyl-10-methyl-11-fluorocamptothecin], the IC50 in assay [1] (setting [10]) is 28.7 nM; in assay [2] (setting [11]) it was 298 nM; in assay [3] (setting [12]), 3.85 nM; in assay [5] (setting [14]), 24.4 nM.

In the case of `CC[C@@]1(O)C(=O)OCc2c1cc1n(c2=O)Cc2c-1nc1cc3c(cc1c2CCN(CCOC)C(=O)CO)OCO3` [Compound 32, 7-(2-(N-Hydroxyacetyl(2-methoxyethyl))amino)ethyl-10,11-methylenedioxycamptothecin], the IC50 in assay [1] (setting [10]) is 6.48 nM; in assay [3] (setting [12]) it was 2.09 nM; in assay [5] (setting [14]), 11.6 nM.

As to `CC[C@@]1(O)C(=O)OCc2c1cc1n(c2=O)Cc2c-1nc1cc(F)c(F)cc1c2CCNCCO` [Compound 10, 7-(2-Hydroxyethylamino)ethyl-10,11-difluorocamptothecin], the IC50 in assay [1] (setting [10]) is 76.5 nM; in assay [3] (setting [12]), 8.17 nM; in assay [5] (setting [14]), 58.3 nM.

For `CC[C@@]1(O)C(=O)OCc2c1cc1n(c2=O)Cc2c-1nc1cc3c(cc1c2CCNC(=O)CN=[N+]=[N-])OCO3` [Compound 37, 7-(2-Azidoacetylamino)ethyl-10,11-methylenedioxycamptothecin], the 50% inhibitory concentration (IC50) in assay [1] (setting [6]) came out at 41.3 nM; in assay [2] (setting [7]) it was 229 nM; in assay [3] (setting [8]) it was 5.57 nM; in assay [5] (setting [9]), 25.2 nM.

For the molecule `CC[C@@]1(O)C(=O)OCc2c1cc1n(c2=O)Cc2c-1nc1cc3c(cc1c2CCNC1CCC(O)CC1)OCO3` (stereo partly drawn) [Compound 26, 7-(2-(4-Hydroxycyclohexyl)amino)ethyl-10,11-methylenedioxycamptothecin], the IC50 stood at 218 nM in assay [1] (setting [6]), 150 nM in assay [3] (setting [8]) and 129 nM in assay [5] (setting [9]).

For the molecule `CC[C@@]1(O)C(=O)OCc2c1cc1n(c2=O)Cc2c-1nc1cc3c(cc1c2CCN(CC(F)F)C(=O)CO)OCO3` [Compound 33, 7-(2-(N-Hydroxyacetyl(2-difluoroethyl))amino)ethyl-10,11-methylenedioxycamptothecin], the IC50 in assay [1] (setting [6]) came to 8.93 nM; in assay [3] (setting [8]) it was 2.63 nM; in assay [5] (setting [9]), 11.9 nM.

In the case of `CC[C@@]1(O)C(=O)OCc2c1cc1n(c2=O)Cc2c-1nc1cc(F)c(F)cc1c2CCNC1CCC(O)CC1` (stereo partly drawn) [Compound 12, 7-(2-(4-Hydroxycyclohexyl)amino)ethyl-10,11-difluorocamptothecin], the IC50 in assay [1] (setting [10]) was 41.7 nM; in assay [2] (setting [11]) it was 85.6 nM; in assay [3] (setting [12]), 5.47 nM; in assay [5] (setting [14]), 43 nM.

Regarding `CC[C@@]1(O)C(=O)OCc2c1cc1n(c2=O)Cc2c-1nc1cc(F)c(C)cc1c2CCNC(=O)C(F)F` [Compound 2, 7-(2-Difluoroacetylamino)ethyl-10-methyl-11-fluorocamptothecin], the IC50 in assay [1] (setting [10]) amounted to 16.6 nM; in assay [2] (setting [11]) it was 101 nM; in assay [3] (setting [12]), 1.9 nM; in assay [5] (setting [14]), 9.02 nM.

As a reminder, the IC50 is the concentration needed to halve the response being measured.

Source of the values: patent US20260042774A1, “CAMPTOTHECIN-7-ETHYLAMINE DERIVATIVE, PREPARATION METHOD THEREFOR, AND USE THEREOF” (HANGZHOU ADCORIS BIOPHARMA CO., LTD, priority 2022, published 2026).
